In patent US20160090383A1, “ANTIBACTERIAL PHTHALIDE DERIVATIVES” (priority 2013, published 2016):
In brackets after ≈: the same amount, converted by molar mass.

Key:
Assay in all cases: Bacterial growth minimal inhibitory concentration (microdilution, CLSI M7-A7)
Format in all cases: cell-based
[1] = test system: Staphylococcus aureus A798; details: multiply-resistant strain (quinolone-resistant and methicillin-resistant), cation-adjusted Mueller-Hinton Broth; for MIC: Staphylococcus aureus, A798, read-out: MIC for S. aureus A798
Method: (§1) Minimal Inhibitory Concentrations (MICs; […]) were determined in cation-adjusted Mueller-Hinton Broth by a microdilution method following the description given in “Methods for Dilution Antimicrobial Susceptibility Tests for Bacteria that Grow Aerobically”, Approved standard, 7th ed., Clinical and Laboratory Standards Institute (CLSI) Document M7-A7, Wayne, Pa., USA, 2006.

[2] = test system: Streptococcus pneumonia ATTC49619; details: quinolone-sensitive strain, cation-adjusted Mueller-Hinton Broth; for MIC: Streptococcus pneumoniae, ATTC49619, read-out: MIC for S. pneumonia ATTC49619
Method: as §1

[3] = test system: Enterococcus faecium A949; details: multiply-resistant strain (quinolone-resistant and vancomycin-resistant), cation-adjusted Mueller-Hinton Broth; for MIC: Enterococcus faecium, A949, read-out: MIC for E. faecium A949
Method: as §1

[4] = test system: Staphylococcus aureus ATCC29213; details: methicillin-sensitive and quinolone-sensitive strain, cation-adjusted Mueller-Hinton Broth; for MIC: Staphylococcus aureus, ATCC29213, read-out: MIC for S. aureus ATCC29213
Method: as §1

[5] = test system: Moraxella catarrhalis A894; details: quinolone-sensitive strain, cation-adjusted Mueller-Hinton Broth; for MIC: Moraxella catarrhalis, A894
Method: as §1

O=C1OC(CCNCCn2c(=O)ccc3ccc(F)cc32)c2ccc(-c3ccccc3)cc21 (racemic) [Example 3, rac-7-Fluoro-1-{2-[2-(3-oxo-5-phenyl-1,3-dihydro-isobenzofuran-1-yl)-ethylamino]-ethyl}-1H-quinolin-2-one]
MIC [1]: 0.125 µg/mL (≈ 0.282 µM)
MIC [2]: 0.125 µg/mL (≈ 0.282 µM)
MIC [3]: 0.25 µg/mL (≈ 0.565 µM)
MIC [4]: 0.031 µg/mL (≈ 0.0701 µM)
MIC [5]: 1 µg/mL (≈ 2.26 µM)

O=C(Cn1c(=O)ccc2ccc(F)cc21)NCCC1OC(=O)c2cc(C3=CCCCC3)ccc21 (racemic) [Example 22, rac-N-[2-(5-Cyclohex-1-enyl-3-oxo-1,3-dihydro-isobenzofuran-1-yl)-ethyl]-2-(7-fluoro-2-oxo-2H-quinolin-1-yl)-acetamide]
MIC [1]: 0.125 µg/mL (≈ 0.271 µM)
MIC [2]: 1 µg/mL (≈ 2.17 µM)
MIC [3]: 0.5 µg/mL (≈ 1.09 µM)
MIC [4]: 0.031 µg/mL (≈ 0.0673 µM)
MIC [5]: 1 µg/mL (≈ 2.17 µM)

CC(C)=Cc1ccc2c(c1)C(=O)OC2CCNC(=O)Cn1c(=O)ccc2ccc(F)cc21 (racemic) [Example 25, rac-2-(7-Fluoro-2-oxo-2H-quinolin-1-yl)-N-{2-[5-(2-methyl-propenyl)-3-oxo-1,3-dihydro-isobenzofuran-1-yl]-ethyl}-acetamide]
MIC [1]: 0.25 µg/mL (≈ 0.575 µM)
MIC [2]: 1 µg/mL (≈ 2.3 µM)
MIC [3]: 0.5 µg/mL (≈ 1.15 µM)
MIC [4]: 0.063 µg/mL (≈ 0.145 µM)
MIC [5]: 4 µg/mL (≈ 9.21 µM)

rac-5-(2,5-Difluoro-phenyl)-3-oxo-1,3-dihydro-isobenzofuran-1-carboxylic acid [3-(7-fluoro-2-oxo-2H-quinolin-1-yl)-propyl]-amide [Example 20]
MIC for S. aureus A798 [1]: 0.063 mg/L
MIC for S. pneumonia ATTC49619 [2]: 2 mg/L
MIC for E. faecium A949 [3]: 1 mg/L
MIC for S. aureus ATCC29213 [4]: 0.063 mg/L
MIC for M. catarrhalis A894 [5]: 0.25 mg/L

O=C(CC1OC(=O)c2cc(-c3cccc(F)c3F)ccc21)NCCn1c(=O)ccc2ccc(F)cc21 (racemic) [Example 8, rac-2-[5-(2,3-Difluoro-phenyl)-3-oxo-1,3-dihydro-isobenzofuran-1-yl]-N-[2-(7-fluoro-2-oxo-2H-quinolin-1-yl)-ethyl]-acetamide]
MIC [1]: 0.25 µg/mL (≈ 0.508 µM)
MIC [2]: 0.5 µg/mL (≈ 1.02 µM)
MIC [3]: 0.25 µg/mL (≈ 0.508 µM)
MIC [4]: 0.031 µg/mL (≈ 0.063 µM)
MIC [5]: 0.5 µg/mL (≈ 1.02 µM)

O=C(CC1OC(=O)c2cc(-c3cc(F)ccc3F)ccc21)NCCn1c(=O)ccc2ccc(F)cc21 (racemic) [Example 9, rac-2-[5-(2,5-Difluoro-phenyl)-3-oxo-1,3-dihydro-isobenzofuran-1-yl]-N-[2-(7-fluoro-2-oxo-2H-quinolin-1-yl)-ethyl]-acetamide]
MIC [1]: 0.125 µg/mL (≈ 0.254 µM)
MIC [2]: 0.25 µg/mL (≈ 0.508 µM)
MIC [3]: 0.25 µg/mL (≈ 0.508 µM)
MIC [4]: 0.031 µg/mL (≈ 0.063 µM)
MIC [5]: 0.125 µg/mL (≈ 0.254 µM)

O=C(Cn1c(=O)ccc2ccc(F)cc21)NCCC1OC(=O)c2cc(-c3cc(F)ccc3F)ccc21 (racemic) [Example 19, rac-N-{2-[5-(2,5-Difluoro-phenyl)-3-oxo-1,3-dihydro-isobenzofuran-1-yl]-ethyl}-2-(7-fluoro-2-oxo-2H-quinolin-1-yl)-acetamide]
MIC [1]: 0.125 µg/mL (≈ 0.254 µM)
MIC [2]: 0.5 µg/mL (≈ 1.02 µM)
MIC [3]: 0.25 µg/mL (≈ 0.508 µM)
MIC [4]: 0.063 µg/mL (≈ 0.128 µM)
MIC [5]: 0.25 µg/mL (≈ 0.508 µM)

O=C(CC1OC(=O)c2cc(-c3ccccc3)ccc21)NCCn1c(=O)ccc2ccc(F)cc21 (racemic) [Example 4, rac-N-[2-(7-Fluoro-2-oxo-2H-quinolin-1-yl)-ethyl]-2-(3-oxo-5-phenyl-1,3-dihydro-isobenzofuran-1-yl)-acetamide]
MIC [1]: 0.5 µg/mL (≈ 1.1 µM)
MIC [2]: 1 µg/mL (≈ 2.19 µM)
MIC [3]: 0.5 µg/mL (≈ 1.1 µM)
MIC [4]: 0.125 µg/mL (≈ 0.274 µM)
MIC [5]: 8 µg/mL (≈ 17.5 µM)

O=C(CC1OC(=O)c2cc(-c3ccccc3F)ccc21)NCCn1c(=O)ccc2ccc(F)cc21 (racemic) [Example 6, rac-N-[2-(7-Fluoro-2-oxo-2H-quinolin-1-yl)-ethyl]-2-[5-(2-fluoro-phenyl)-3-oxo-1,3-dihydro-isobenzofuran-1-yl]acetamide]
MIC [1]: 0.25 µg/mL (≈ 0.527 µM)
MIC [2]: 0.5 µg/mL (≈ 1.05 µM)
MIC [3]: 0.25 µg/mL (≈ 0.527 µM)
MIC [4]: 0.063 µg/mL (≈ 0.133 µM)
MIC [5]: 2 µg/mL (≈ 4.22 µM)

O=C(CC1OC(=O)c2cc(-c3ccc(F)c(F)c3)ccc21)NCCn1c(=O)ccc2ccc(F)cc21 (racemic) [Example 10, rac-2-[5-(3,4-Difluoro-phenyl)-3-oxo-1,3-dihydro-isobenzofuran-1-yl]-N-[2-(7-fluoro-2-oxo-2H-quinolin-1-yl)-ethyl]-acetamide]
MIC [1]: > 8 µg/mL
MIC [2]: 4 µg/mL (≈ 8.12 µM)
MIC [3]: 2 µg/mL (≈ 4.06 µM)
MIC [4]: 0.5 µg/mL (≈ 1.02 µM)
MIC [5]: > 8 µg/mL

O=C1OC(C(=O)NCCCn2c(=O)ccc3ccc(F)cc32)c2ccc(-c3ccccc3)cc21 (racemic) [Example 13, rac-3-Oxo-5-phenyl-1,3-dihydro-isobenzofuran-1-carboxylic acid [3-(7-fluoro-2-oxo-2H-quinolin-1-yl)-propyl]-amide]
MIC [1]: 0.125 µg/mL (≈ 0.274 µM)
MIC [2]: 1 µg/mL (≈ 2.19 µM)
MIC [3]: 0.5 µg/mL (≈ 1.1 µM)
MIC [4]: 0.063 µg/mL (≈ 0.138 µM)
MIC [5]: > 8 µg/mL

(S)-9-Fluoro-1-[3-((R)-3-oxo-5-phenyl-1,3-dihydro-isobenzofuran-1-yl)-propylamino]-1,2-dihydro-pyrrolo[3,2,1-ij]quinolin-4-one and (S)-9-Fluoro-1-[3-((S)-3-oxo-5-phenyl-1,3-dihydro-isobenzofuran-1-yl)-propylamino]-1,2-dihydro-pyrrolo[3,2,1-ij]quinolin-4-one [Example 7]
MIC for S. aureus A798 [1]: 0.125 mg/L
MIC for S. pneumonia ATTC49619 [2]: 0.125 mg/L
MIC for E. faecium A949 [3]: 0.125 mg/L
MIC for S. aureus ATCC29213 [4]: 0.031 mg/L
MIC for M. catarrhalis A894 [5]: 2 mg/L

O=C1OC(CCNCCn2c(=O)ccc3ccc(F)cc32)c2ccc(-c3ccc(F)cc3F)cc21 (racemic) [Example 15, rac-1-(2-{2-[5-(2,4-Difluoro-phenyl)-3-oxo-1,3-dihydro-isobenzofuran-1-yl]-ethylamino}-ethyl)-7-fluoro-1H-quinolin-2-one]
MIC [1]: 1 µg/mL (≈ 2.09 µM)
MIC [2]: 0.5 µg/mL (≈ 1.04 µM)
MIC [3]: 0.5 µg/mL (≈ 1.04 µM)
MIC [4]: 0.25 µg/mL (≈ 0.522 µM)
MIC [5]: 4 µg/mL (≈ 8.36 µM)

(S)-3-Oxo-5-phenyl-1,3-dihydro-isobenzofuran-1-carboxylic acid [2-((R)-9-fluoro-4-oxo-1,2-dihydro-4H-pyrrolo[3,2,1-ij]quinolin-1-ylamino)-ethyl]-amide and (S)-3-Oxo-5-phenyl-1,3-dihydro-isobenzofuran-1-carboxylic acid [2-((R)-9-fluoro-4-oxo-1,2-dihydro-4H-pyrrolo[3,2,1-ij]quinolin-1-ylamino)-ethyl]-amide [Example 14]
MIC for S. aureus A798 [1]: 0.125 mg/L
MIC for S. pneumonia ATTC49619 [2]: 2 mg/L
MIC for E. faecium A949 [3]: 0.5 mg/L
MIC for S. aureus ATCC29213 [4]: 0.125 mg/L
MIC for M. catarrhalis A894 [5]: 4 mg/L

O=C1OC(C(=O)NCCCn2c(=O)ccc3ccc(F)cc32)c2ccc(C3=CCCCC3)cc21 (racemic) [Example 21, rac-5-Cyclohex-1-enyl-3-oxo-1,3-dihydro-isobenzofuran-1-carboxylic acid [3-(7-fluoro-2-oxo-2H-quinolin-1-yl)-propyl]-amide]
MIC [1]: 0.125 µg/mL (≈ 0.271 µM)
MIC [2]: 4 µg/mL (≈ 8.69 µM)
MIC [3]: 4 µg/mL (≈ 8.69 µM)
MIC [4]: 0.125 µg/mL (≈ 0.271 µM)
MIC [5]: 2 µg/mL (≈ 4.34 µM)

O=C(CC1OC(=O)c2cc(C3=CCCCC3)ccc21)NCCn1c(=O)ccc2ccc(F)cc21 (racemic) [Example 16, rac-2-(5-Cyclohex-1-enyl-3-oxo-1,3-dihydro-isobenzofuran-1-yl)-N-[2-(7-fluoro-2-oxo-2H-quinolin-1-yl)-ethyl]-acetamide]
MIC [1]: 0.063 µg/mL (≈ 0.137 µM)
MIC [2]: 0.5 µg/mL (≈ 1.09 µM)
MIC [3]: 0.25 µg/mL (≈ 0.543 µM)
MIC [4]: ≤ 0.016 µg/mL
MIC [5]: 0.5 µg/mL (≈ 1.09 µM)

O=C(Cn1c(=O)ccc2ccc(F)cc21)NCCC1OC(=O)c2cc(C3=CCCC3)ccc21 (racemic) [Example 23, rac-N-[2-(5-Cyclopent-1-enyl-3-oxo-1,3-dihydro-isobenzofuran-1-yl)-ethyl]-2-(7-fluoro-2-oxo-2H-quinolin-1-yl)-acetamide]
MIC [1]: 1 µg/mL (≈ 2.24 µM)
MIC [2]: 4 µg/mL (≈ 8.96 µM)
MIC [3]: 0.5 µg/mL (≈ 1.12 µM)
MIC [4]: 0.25 µg/mL (≈ 0.56 µM)
MIC [5]: > 8 µg/mL

O=C(CC1OC(=O)c2cc(-c3cccc(F)c3)ccc21)NCCn1c(=O)ccc2ccc(F)cc21 (racemic) [Example 5, rac-N-[2-(7-Fluoro-2-oxo-2H-quinolin-1-yl)-ethyl]-2-[5-(3-fluoro-phenyl)-3-oxo-1,3-dihydro-isobenzofuran-1-yl]-acetamide]
MIC [1]: 0.25 µg/mL (≈ 0.527 µM)
MIC [2]: 0.5 µg/mL (≈ 1.05 µM)
MIC [3]: 0.25 µg/mL (≈ 0.527 µM)
MIC [4]: 0.063 µg/mL (≈ 0.133 µM)
MIC [5]: 1 µg/mL (≈ 2.11 µM)

COc1ccc2ncc(=O)n(CCNCCC3OC(=O)c4cc(-c5ccccc5)ccc43)c2n1 (racemic) [Example 2, rac-6-Methoxy-4-{2-[2-(3-oxo-5-phenyl-1,3-dihydro-isobenzofuran-1-yl)-ethylamino]-ethyl}-4H-pyrido[2,3-b]pyrazin-3-one]
MIC [1]: 0.125 µg/mL (≈ 0.274 µM)
MIC [2]: 0.5 µg/mL (≈ 1.1 µM)
MIC [3]: 0.25 µg/mL (≈ 0.548 µM)
MIC [4]: 0.031 µg/mL (≈ 0.0679 µM)
MIC [5]: 0.5 µg/mL (≈ 1.1 µM)

O=C(Cn1c(=O)ccc2ccc(F)cc21)NCCC1OC(=O)c2cc(-c3ccccc3)ccc21 (racemic) [Example 18, rac-2-(7-Fluoro-2-oxo-2H-quinolin-1-yl)-N-[2-(3-oxo-5-phenyl-1,3-dihydro-isobenzofuran-1-yl)-ethyl]-acetamide]
MIC [1]: 2 µg/mL (≈ 4.38 µM)
MIC [2]: 4 µg/mL (≈ 8.76 µM)
MIC [3]: 0.5 µg/mL (≈ 1.1 µM)
MIC [4]: 0.25 µg/mL (≈ 0.548 µM)
MIC [5]: > 8 µg/mL
